Reference: article PMC9199881 (Clinical and Translational Science, 2022)

Tests used:
[1] = tested on: collagen-induced arthritis in rats; details: cited from earlier work
[2] = tested on: spontaneous canine pemphigus foliaceus; details: cited from earlier work
[3] = tested on: other CYP enzymes; details: enzymatic studies; cited from earlier work
[4] = tested on: human ether-a-go-go-related gene (hERG) current; details: 10 μM; hERG-transfected HEK293 cells; ref unpublished preclinical safety studies; cited from earlier work
[5] = tested on: healthy subjects; assay: Safety assessment; type: in vivo, human
[6] = tested on: cytochrome P450 3A4 (CYP3A4); details: enzymatic studies; cited from earlier work
[7] = tested on: healthy subjects; assay: Safety assessment; type: in vivo, human; details: Part A
[8] = Part B, 400 mg rilzabrutinib plus ritonavir
[9] = Part B, rilzabrutinib 400 mg + ritonavir 100 mg, first column of the group
[10] = Part B, rilzabrutinib 400 mg + ritonavir 100 mg, second column of the group
[11] = rilzabrutinib 100 mg + ritonavir 100 mg

CC(C)(/C=C(\C#N)C(=O)N1CCC[C@@H](n2nc(-c3ccc(Oc4ccccc4)cc3F)c3c(N)ncnc32)C1)N1CCN(C2COC2)CC1 [Rilzabrutinib, rilzabrutinib]
effect on disease [1]: dose‐dependent reduction and complete reversal of disease | anti-inflammatory effects [2]: rapid and significant anti‐inflammatory effects | interaction with other CYP enzymes [3]: no significant interaction | signal on hERG current [4]: no signal | serious TEAEs or deaths ([5]; Part B): no serious TEAEs or deaths | Treatment-related TEAE: Abdominal pain, n (%) ([5]; Part B, 400 mg alone): 3 (9.4) n (%) | Treatment-related TEAE: Diarrhea, n (%) ([5]; Part B, 400 mg alone): 9 (28.1) n (%) | Treatment-related TEAE: Dizziness, n (%) ([5]; Part B, 400 mg alone): 0 n (%) | Treatment-related TEAE: Dysgeusia, n (%) ([5]; Part B, 400 mg alone): 1 (3.1) n (%) | Treatment-related TEAE: Frequent bowel movements, n (%) ([5]; Part B, 400 mg alone): 0 n (%) | Treatment-related TEAE: Gastrointestinal disorders, n (%) ([5]; Part B, 400 mg alone): 13 (40.6) n (%) | Treatment-related TEAE: Headache, n (%) ([5]; Part B, 400 mg alone): 1 (3.1) n (%) | Treatment-related TEAE: Herpex simplex, n (%) ([5]; Part B, 400 mg alone): 0 n (%) | Treatment-related TEAE: Infections and infestations, n (%) ([5]; Part B, 400 mg alone): 0 n (%) | Treatment-related TEAE: Lethargy, n (%) ([5]; Part B, 400 mg alone): 0 n (%) | Treatment-related TEAE: Nervous system disorders, n (%) ([5]; Part B, 400 mg alone): 2 (6.3) n (%) | Treatment-related TEAE: Somnolence, n (%) ([5]; Part B, 400 mg alone): 0 n (%) | Treatment-related TEAE: Subjects with ≥1 TEAE, n (%) ([5]; Part B, 400 mg alone): 14 (43.8) n (%) | Treatment-related TEAE: Vomiting, n (%) ([5]; Part B, 400 mg alone): 0 n (%) | incidence of treatment-related TEAEs ([5]; Part B, 400 mg alone): 43.8% | participants with diarrhea ([5]; Part B, 400 mg alone): 28.1% | incidence of treatment-related TEAEs [5, 8]: 44.1% | participants with diarrhea [5, 8]: 35.3% | moderate (grade 2) rilzabrutinib related TEAEs ([5]; Part B, nausea with 400 mg and diarrhea with 400 mg plus 100 mg ritonavir, in two participants): two moderate (grade 2) rilzabrutinib related TEAEs | Treatment-related TEAE: Abdominal pain, n (%) [5, 9]: 0 n (%) | Treatment-related TEAE: Diarrhea, n (%) [5, 9]: 12 (35.3) n (%) | Treatment-related TEAE: Dizziness, n (%) [5, 9]: 0 n (%) | Treatment-related TEAE: Dysgeusia, n (%) [5, 9]: 2 (5.9) n (%) | Treatment-related TEAE: Frequent bowel movements, n (%) [5, 9]: 1 (2.9) n (%) | Treatment-related TEAE: Gastrointestinal disorders, n (%) [5, 9]: 14 (41.2) n (%) | Treatment-related TEAE: Headache, n (%) [5, 9]: 0 n (%) | Treatment-related TEAE: Herpex simplex, n (%) [5, 9]: 1 (2.9) n (%) | Treatment-related TEAE: Infections and infestations, n (%) [5, 9]: 1 (2.9) n (%) | Treatment-related TEAE: Lethargy, n (%) [5, 9]: 0 n (%) | Treatment-related TEAE: Nervous system disorders, n (%) [5, 9]: 3 (8.8) n (%) | Treatment-related TEAE: Somnolence, n (%) [5, 9]: 2 (5.9) n (%) | Treatment-related TEAE: Vomiting, n (%) [5, 9]: 0 n (%) | Treatment-related TEAE: Abdominal pain, n (%) [second column of the group] [5, 10]: 0 n (%) | Treatment-related TEAE: Diarrhea, n (%) [second column of the group] [5, 10]: 12 n (%) | Treatment-related TEAE: Dizziness, n (%) [second column of the group] [5, 10]: 0 n (%) | Treatment-related TEAE: Dysgeusia, n (%) [second column of the group] [5, 10]: 2 n (%) | Treatment-related TEAE: Headache, n (%) [second column of the group] [5, 10]: 0 n (%) | Treatment-related TEAE: Herpex simplex, n (%) [second column of the group] [5, 10]: 1 n (%) | Treatment-related TEAE: Lethargy, n (%) [second column of the group] [5, 10]: 0 n (%) | Treatment-related TEAE: Nausea, n (%) [second column of the group] [5, 10]: 4 n (%) | Treatment-related TEAE: Somnolence, n (%) [second column of the group] [5, 10]: 2 n (%) | Treatment-related TEAE: Vomiting, n (%) [second column of the group] [5, 10]: 0 n (%) | changes in clinical chemistry ([5]; at the studied doses): No clinically meaningful changes | safety profile ([5]; at the studied doses): acceptable safety profile | interaction with CYP3A4 [6]: substrate for and weak inhibitor | serious TEAEs, deaths, or TEAEs leading to study drug interruption/discontinuation [7]: no serious TEAEs, deaths, or TEAEs leading to study drug interruption/discontinuation | severity of rilzabrutinib-related TEAEs [7]: mostly mild (grade 1) | participants with TEAEs deemed related to rilzabrutinib treatment ([7]; 100 mg plus ritonavir 100 mg, one event in one participant): 9.1% | participants with TEAEs deemed related to rilzabrutinib treatment (GI-related) ([7]; 1200 mg, five events in three participants): 75% | rilzabrutinib-related TEAEs ([7]; following 100 mg rilzabrutinib): no rilzabrutinib‐related TEAEs reported | Treatment-related TEAE: Diarrhea, n (%) ([7]; rilzabrutinib 100 mg): 0 n (%) | Treatment-related TEAE: Dizziness, n (%) ([7]; rilzabrutinib 100 mg): 0 n (%) | Treatment-related TEAE: Gastrointestinal disorders, n (%) ([7]; rilzabrutinib 100 mg): 0 n (%) | Treatment-related TEAE: Nausea, n (%) ([7]; rilzabrutinib 100 mg): 0 n (%) | Treatment-related TEAE: Nervous system disorders, n (%) ([7]; rilzabrutinib 100 mg): 1 (8.3) n (%) | Treatment-related TEAE: Orthostatic hypotension, n (%) ([7]; rilzabrutinib 100 mg): 0 n (%) | Treatment-related TEAE: Subjects with ≥1 TEAE, n (%) ([7]; rilzabrutinib 100 mg): 0 n (%) | Treatment-related TEAE: Vascular disorders, n (%) ([7]; rilzabrutinib 100 mg): 0 n (%) | Treatment-related TEAE: Vomiting, n (%) ([7]; rilzabrutinib 100 mg): 0 n (%) | Treatment-related TEAE: Diarrhea, n (%) [7, 11]: 0 n (%) | Treatment-related TEAE: Dizziness, n (%) [7, 11]: 1 (9.1) n (%) | Treatment-related TEAE: Gastrointestinal disorders, n (%) [7, 11]: 0 n (%)
